The source of these data is patent publication US11590116B2 (THERAVANCE BIOPHARMA R&D IP, LLC, priority 2019, dated 2023).

Each structure is given as a SMILES string.

Experiment [1] deals with T1, recombinant human ALK5 (TGF-βR1) protein (Homo sapiens, UniProt P36897).
T1 construct: purchased Life Technologies PR9075A
T1 sequence (P36897 34-503): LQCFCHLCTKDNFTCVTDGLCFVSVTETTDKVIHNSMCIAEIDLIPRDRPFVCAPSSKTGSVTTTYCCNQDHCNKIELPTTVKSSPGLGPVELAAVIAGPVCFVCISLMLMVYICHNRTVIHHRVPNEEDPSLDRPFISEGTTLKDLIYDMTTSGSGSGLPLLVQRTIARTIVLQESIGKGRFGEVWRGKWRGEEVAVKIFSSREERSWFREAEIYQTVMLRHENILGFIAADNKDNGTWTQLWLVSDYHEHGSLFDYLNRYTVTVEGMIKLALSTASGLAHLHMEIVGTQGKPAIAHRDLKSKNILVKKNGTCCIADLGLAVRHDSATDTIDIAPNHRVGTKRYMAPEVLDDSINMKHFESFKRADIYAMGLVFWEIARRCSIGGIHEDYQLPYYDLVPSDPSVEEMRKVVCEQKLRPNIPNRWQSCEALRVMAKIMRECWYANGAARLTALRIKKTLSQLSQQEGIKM
The experiment in a line: Biochemical ALK5 (TGF-βR1) assay to measure pKi (LANCE Ultra ULight kinase assay). As to conditions: apparent pKi from pIC50 by Cheng-Prusoff, read-out: ALK5 pKi (converted). The method, boiled down:
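After a 60 min room-temperature preincubation of ALK5 with compound, phosphorylation proceeds 60 min at 37 °C on ATP addition (125 μM as 5× stock). Detection: Eu-labelled phospho-Thr1342 Topo IIα antibody in EDTA buffer, pH 7.0; emission 665 nm.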
(Time-resolved FRET reads energy transfer from a long-lived donor to a nearby acceptor.)

Experiment [2] deals with TGF-β-stimulated SMAD3 phosphorylation in BEAS-2B cells. The experiment in a line: Cellular ALK5 potency assay, inhibition of TGF-β stimulated pSMAD3 formation in BEAS-2B cells. Format: cell-based. The note with it: Homo sapiens; inhibition of TGF-β stimulated pSMAD3 formation, BEAS-2B cells; read-out: BEAS2B pIC50 (converted). The method, boiled down: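 BEAS-2B human lung epithelial cells pre-treated 1 h at 37° C with compound in HBSS/25 mM HEPES/1% BSA, then stimulated 30 min with 10 ng/mL TGF-β (final). Lysates assayed for pSMAD3 by AlphaLISA; pIC50 from dose-dependent change versus stimulated untreated cells.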

Regarding `Cc1cccc(-c2n[nH]cc2-c2ccc3ncc(-c4cnn(CCN5CCCC5=O)c4)cc3n2)n1` [Compound 571, 1-[2-[4-[6-[3-(6-methyl-2-pyridyl)-1H-pyrazol-4-yl]-1,5-naphthyridin-3-yl]pyrazol-1-yl]ethyl]pyrrolidin-2-one], the Ki in experiment [1] was less than 0.0316 nM. Besides, the IC50 in experiment [2] is 25.1 to 158 nM.
The matching figures for `Cc1nc(-c2[nH]cnc2-c2ccc3ncc(-c4cn5c(n4)CNCC5)cc3n2)ccc1F` [Compound 91, 2-[5-(5-fluoro-6-methyl-2-pyridyl)-1H-imidazol-4-yl]-7-(5,6,7,8-tetrahydroimidazo[1,2-a]pyrazin-2-yl)-1,5-naphthyridine]: 0.0398 to 0.316 nM and 25.1 to 158 nM.
Take `Cc1cccc(-c2[nH]cnc2-c2ccc3ncc(NCCN4CC5(CCNCC5)C4)cc3c2)n1` [Compound 735, N-[2-(2,7-diazaspiro[3.5]nonan-2-yl)ethyl]-6-[5-(6-methyl-2-pyridyl)-1H-imidazol-4-yl]quinolin-3-amine]: the Ki in experiment [1] was 0.0398 to 0.316 nM. Moreover, the IC50 in experiment [2] is 200 to 1260 nM.
Regarding `Cc1cccc(-c2[nH]cnc2-c2ccc3ncc(NCCN4CCN(C(C)C)CC4)cc3c2)n1` [Compound 467, N-[2-(4-isopropylpiperazin-1-yl)ethyl]-6-[5-(6-methyl-2-pyridyl)-1H-imidazol-4-yl]quinolin-3-amine], the Ki in experiment [1] was 0.0398 to 0.316 nM. In addition, in experiment [2], the IC50 is 25.1 to 158 nM.
As for `Cc1cccc(-c2[nH]cnc2-c2ccc3ncc(-c4ccc5c(c4)CNCC5)cc3c2)n1` [Compound 609, 6-[5-(6-methyl-2-pyridyl)-1H-imidazol-4-yl]-3-(1,2,3,4-tetrahydroisoquinolin-7-yl)quinoline], the Ki in experiment [1] is 0.0398 to 0.316 nM. The IC50 in experiment [2] is less than 20 nM.
The matching figures for `Cc1cccc(-c2[nH]cnc2-c2ccc3ncc(-c4csc(C(=O)OCC5CNC5)c4)cc3c2)n1` [Compound 753, azetidin-3-ylmethyl 4-(6-(5-(6-methylpyridin-2-yl)-1H-imidazol-4-yl)quinolin-3-yl)thiophene-2-carboxylate]: 0.0398 to 0.316 nM and 25.1 to 158 nM.
The matching figures for `COC(=O)CNc1cnc2ccc(-c3nc[nH]c3-c3cccc(C)n3)cc2c1` [Compound 1229, methyl 2-[[6-[5-(6-methyl-2-pyridyl)-1H-imidazol-4-yl]-3-quinolyl]amino]acetate]: 0.0398 to 0.316 nM and 25.1 to 158 nM.
As for `Cc1cccc(-c2n[nH]cc2-c2ccc3nccc(N)c3n2)n1` [Compound 835, 6-[3-(6-methyl-2-pyridyl)-1H-pyrazol-4-yl]-1,5-naphthyridin-4-amine], the Ki in experiment [1] was 0.398 to 3.16 nM. Further, the IC50 in experiment [2] is 25.1 to 158 nM.
With `Cc1cccc(-c2[nH]cnc2-c2ccc3ncc(-c4nc(C(=O)O[C@H]5CCN(C)C5)cs4)cc3c2)n1` [Compound 747, [(3S)-1-methylpyrrolidin-3-yl] 2-[6-[5-(6-methyl-2-pyridyl)-1H-imidazol-4-yl]-3-quinolyl]thiazole-4-carboxylate], the Ki in experiment [1] is 0.0398 to 0.316 nM. Besides, the IC50 in experiment [2] was less than 20 nM.
The matching figures for `Cc1cccc(-c2n[nH]cc2-c2ccc3ncc(N4CCCN(CC(C)C)CC4)cc3n2)n1` [Compound 320, 7-(4-isobutyl-1,4-diazepan-1-yl)-2-[3-(6-methyl-2-pyridyl)-1H-pyrazol-4-yl]-1,5-naphthyridine]: 0.0398 to 0.316 nM and 200 to 1260 nM.
The matching figures for `Cc1nc(-c2nc3ccccn3c2-c2ccc3ncc(-c4cnn(C5CCCNC5)c4)cc3n2)ccc1F` (stereo not drawn) [Compound 576, 2-[2-(5-fluoro-6-methyl-2-pyridyl)imidazo[1,2-a]pyridin-3-yl]-7-[1-(3-piperidyl)pyrazol-4-yl]-1,5-naphthyridine]: 0.0398 to 0.316 nM and 25.1 to 158 nM.
Regarding `Cc1cccc(-c2[nH]cnc2-c2ccc3ncc(N4CCNCC4)cc3c2)n1` [Compound 412, 6-[5-(6-methyl-2-pyridyl)-1H-imidazol-4-yl]-3-piperazin-1-yl-quinoline], in experiment [1], the Ki was 0.0398 to 0.316 nM. The IC50 in experiment [2] was less than 20 nM.
The matching figures for `Cc1cccc(-c2nnn(Cc3ccccc3)c2-c2ccc3ncc(NCCN4CCN(C(C)C)CC4)cc3n2)n1` [Compound 373, 6-(1-benzyl-4-(6-methylpyridin-2-yl)-1H-1,2,3-triazol-5-yl)-N-(2-(4-isopropylpiperazin-1-yl)ethyl)-1,5-naphthyridin-3-amine]: 0.0398 to 0.316 nM and 200 to 1260 nM.
As for `Cc1cccc(-c2n[nH]cc2-c2ccc3ncc(Nc4ccc(N5CCN(C)CC5)cn4)cc3c2)n1` [Compound 666, N-[5-(4-methylpiperazin-1-yl)-2-pyridyl]-6-[3-(6-methyl-2-pyridyl)-1H-pyrazol-4-yl]quinolin-3-amine], the Ki in experiment [1] was 0.0398 to 0.316 nM. Besides, the IC50 in experiment [2] was 25.1 to 158 nM.
As to `CNCCN(C)C1CCN(c2cnc3ccc(-c4c[nH]nc4-c4cccc(C)n4)nc3c2)CC1` [Compound 18, N,N′-dimethyl-N′-[1-[6-[3-(6-methyl-2-pyridyl)-1H-pyrazol-4-yl]-1,5-naphthyridin-3-yl]-4-piperidyl]ethane-1,2-diamine], the Ki in experiment [1] is 0.0398 to 0.316 nM. In experiment [2], the IC50 was 200 to 1260 nM.
Regarding `Cc1cccc(-c2[nH]cnc2-c2ccc3ncc(-c4nc(C(=O)OCCN5CCC[C@@H](N)C5)cs4)cc3c2)n1` [Compound 1252, 2-[(3R)-3-amino-1-piperidyl]ethyl 2-[6-[5-(6-methyl-2-pyridyl)-1H-imidazol-4-yl]-3-quinolyl]thiazole-4-carboxylate], in experiment [1], the Ki was 0.0398 to 0.316 nM. Also, the IC50 in experiment [2] was 25.1 to 158 nM.
With `Cc1cccc(-c2[nH]ncc2-c2ccc3ncc(C(=O)OCCN4CCN5CCCC5C4)cc3c2)n1` (stereo not drawn) [Compound 1234, 2-(3,4,6,7,8,8a-hexahydro-1H-pyrrolo[1,2-a]pyrazin-2-yl)ethyl 6-[5-(6-methyl-2-pyridyl)-1H-pyrazol-4-yl]quinoline-3-carboxylate], the Ki in experiment [1] was 0.0398 to 0.316 nM. Besides, in experiment [2], the IC50 was 25.1 to 158 nM.
Take `Cc1nc(-c2n[nH]cc2-c2ccc3ncc(-c4cnn5c4NCC5)cc3n2)ccc1F` [Compound 534, 7-(2,3-dihydro-1H-imidazo[1,2-b]pyrazol-7-yl)-2-[3-(5-fluoro-6-methyl-2-pyridyl)-1H-pyrazol-4-yl]-1,5-naphthyridine]: the Ki in experiment [1] is less than 0.0316 nM. Further, in experiment [2], the IC50 was less than 20 nM.
Turning to `Cc1cccc(-c2[nH]cnc2-c2ccc3ncc(-c4cnn(C5CNC5)c4)cc3c2)n1` [Compound 434, 3-[1-(azetidin-3-yl)pyrazol-4-yl]-6-[5-(6-methyl-2-pyridyl)-1H-imidazol-4-yl]quinoline], the Ki in experiment [1] was less than 0.0316 nM. In experiment [2], the IC50 is 25.1 to 158 nM.
On to `Cc1cccc(-c2n[nH]cc2-c2ccc3ncc(N4CCN[C@H](C)C4)cc3n2)n1` [Compound 249, 7-[(3R)-3-methylpiperazin-1-yl]-2-[3-(6-methyl-2-pyridyl)-1H-pyrazol-4-yl]-1,5-naphthyridine], for which the Ki in experiment [1] is 0.0398 to 0.316 nM. For the same compound, the IC50 in experiment [2] is 25.1 to 158 nM.
Turning to `Cc1cccc(-c2n[nH]cc2-c2ccc3ncc(CNCCCN4CCN(C(C)C)CC4)cc3n2)n1` [Compound 218, 3-(4-isopropylpiperazin-1-yl)-N-[[6-[3-(6-methyl-2-pyridyl)-1H-pyrazol-4-yl]-1,5-naphthyridin-3-yl]methyl]propan-1-amine], the Ki in experiment [1] is 0.398 to 3.16 nM. Further, in experiment [2], the IC50 was 200 to 1260 nM.
